# Experimental data as given in patent publication US10875851B2, “Factor XIIa inhibitors” (Merck Sharp & Dohme Corp., priority 2016, dated 2020).
# Target: human Factor XIIa (Homo sapiens (Human), UniProt P00748)
# Experiment: Factor XIIa Assay
# Format: biochemical
# Details: purified human Factor XIIa 500 pM; substrate n-Acetyl-Lys-Pro-Arg-AFC 100 μM; pH 7.4; read-out: FXIIa IC50
# Description: The effectiveness of a compound of the present invention as an inhibitor of Coagulation Factor XIIa can be determined using a relevant purified serine protease, and an appropriate synthetic substrate. The rate of hydrolysis of the chromogenic or fluorogenic substrate by the relevant serine protease was measured both in the absence and presence of compounds of the present invention. Assays were conducted at room temperature or at 37° C. […] A decrease in the rate of fluorescence change in the presence of inhibitor is indicative of enzyme inhibition. Such methods are known to one skilled in the art.
# Factor XIIa activity determinations were made in 50 mM HEPES buffer containing 150 mM NaCl, 5 mM CaCl2, and 0.1% PEG 8000 (polyethylene glycol; JT Baker or Fisher Scientific) at pH 7.4. Determinations were made using purified human Factor XIIa at a final concentration of 500 pM (Sekisui Diagnostics) and the synthetic substrate, n-Acetyl-Lys-Pro-Arg-AFC, TFA salt (Sigma #C6608) at a concentration of 100 μM.
# Times required to achieve equilibration between enzyme and inhibitor were determined in control experiments. Initial velocities of product formation in the absence (Vo) or presence of inhibitor (Vi) were measured. IC50 was determined as the concentration of I yielding Vi=Vo/2.
# Sequence of human Factor XIIa (P00748 373-615): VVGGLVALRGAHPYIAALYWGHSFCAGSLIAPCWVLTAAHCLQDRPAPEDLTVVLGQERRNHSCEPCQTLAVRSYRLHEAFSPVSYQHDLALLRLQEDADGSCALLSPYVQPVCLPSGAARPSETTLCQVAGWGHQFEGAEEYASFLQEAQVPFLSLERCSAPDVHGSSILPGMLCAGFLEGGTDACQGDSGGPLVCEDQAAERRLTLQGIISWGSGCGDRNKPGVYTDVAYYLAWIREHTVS
row,SMILES,IC50 [nM]
1,"CC(C)N[C@H](CCCCN1CCCCC1)C(=O)N1CCN(C2=N[C@@H](C)[C@H](c3ccccc3)O2)C[C@H]1C(=O)NCc1cccc(Cl)c1 [Example 175, (2S)-N-(3-chlorobenzyl)-1-[N-(1-methylethyl)-6-piperidin-1-yl-D-norleucyl]-4-[(4S,5S)-4-methyl-5-phenyl-4,5-dihydro-1,3-oxazol-2-yl]piperazine-2-carboxamide]",6.6
2,"COc1cc(CNC(=O)[C@@H]2CN(C(=O)Oc3ccc4ccccc4c3Cl)CCN2C(=O)[C@@H](CCCCNS(C)(=O)=O)NC2CCC3(CC2)CCN(Cc2ccccc2)C3)ccc1CN (stereo partly drawn) [Example 74, 1-chloronaphthalen-2-yl (3S)-3-{[4-(aminomethyl)-3-methoxybenzyl]carbamoyl}-4-[N^2-(2-benzyl-2-azaspiro[4.5]dec-8-yl)-N^6-(methylsulfonyl)-D-lysyl]piperazine-1-carboxylate]",3.7
3,"CN(C)CCCC[C@H](C(=O)N1CCN(C2=NC(C)(C)C(c3ccccc3)O2)C[C@H]1C(=O)NCc1cc(CN)cs1)N(C)C (stereo partly drawn) [Example 150, (2S)-N-{[4-(aminomethyl)thiophen-2-yl]methyl}-4-(4,4-dimethyl-5-phenyl-4,5-dihydro-1,3-oxazol-2-yl)-1-(N^2,N^2,N^6,N^6-tetramethyl-D-lysyl)piperazine-2-carboxamide]",48.5
4,"O=C(NCc1cccs1)[C@@H]1CN(C(=O)Oc2cccc3cccnc23)CCN1C(=O)[C@@H](CC1CCCCC1)NC1CCCCC1 [Example 30, quinolin-8-yl (3S)-4-(N,3-dicyclohexyl-D-alanyl)-3-[(thiophen-2-ylmethyl)carbamoyl]piperazine-1-carboxylate]",5.8
5,"COc1cc(CNC(=O)[C@@H]2CN(C3=NC(C)(C)[C@H](c4ccccc4)O3)CCN2C(=O)[C@@H](CCCCN(C)C)N(C)C)ccc1C(N)=O [Example 154, (2S)-N-(4-carbamoyl-3-methoxybenzyl)-4-[(5S)-4,4-dimethyl-5-phenyl-4,5-dihydro-1,3-oxazol-2-yl]-1-(N^2,N^2,N^6,N^6-tetramethyl-D-lysyl)piperazine-2-carboxamide]",12.4
6,"C[C@H]1N=C(N2CCN(C(=O)[C@@H](CCCCN(C)C)NC3CCC4(CC3)CCN(Cc3ccccc3)C4)[C@H](C(=O)NCc3cccs3)C2)O[C@@H]1c1ccccc1 (stereo partly drawn) [Example 143, (2S)-1[N^2-(2-benzyl-2-azaspiro[4.5]dec-8-yl)-N^6,N^6-dimethyl-D-lysyl]-4-[(4R,5R)-4-methyl-5-phenyl-4,5-dihydro-1,3-oxazol-2-yl]-N-(thiophen-2-ylmethyl)piperazine-2-carboxamide]",9.4
7,"Cc1ccc(OC(=O)N2CCN(C(=O)[C@@H](CCCCN(C)C)NC3CCC4(CC3)CCN(Cc3ccccc3)C4)[C@H](C(=O)NCc3cccs3)C2)c(Cl)c1C (stereo partly drawn) [Example 108, 2-chloro-3,4-dimethylphenyl (3S)-4-[N^2-(2-benzyl-2-azaspiro[4.5]dec-8-yl)-N^6,N^6-dimethyl-D-lysyl]-3-[(thiophen-2-ylmethyl)carbamoyl]piperazine-1-carboxylate]",0.3
8,"O=C(NCc1cccs1)[C@@H]1CN(C(=O)Oc2ccccc2Cl)CCN1C(=O)[C@H](NC1CCCCC1)C1CCN(S(=O)(=O)C2CC2)CC1 [Example 62, 2-chlorophenyl (3S)-4-{(2R)-2-(cyclohexylamino)-2-[1-(cyclopropylsulfonyl)piperidin-4-yl]acetyl}-3-[(thiophen-2-ylmethyl)carbamoyl]piperazine-1-carboxylate]",1.7
9,"CC(C)NCCCC[C@@H](NC(C)C)C(=O)N1CCN(C2=N[C@@H](C)[C@H](c3ccccc3)O2)C[C@H]1C(=O)NCc1cccc(Cl)c1 [Example 166, (2S)-1-[N^2,N^6-bis(1-methylethyl)-D-lysyl]-N-(3-chlorobenzyl)-4-[(4S,5S)-4-methyl-5-phenyl-4,5-dihydro-1,3-oxazol-2-yl]piperazine-2-carboxamide]",6.8
10,"CN(C)CCCC[C@@H](NC1CCCCC1)C(=O)N1CCN(C(=O)Oc2ccccc2Cl)C[C@H]1C(=O)NCc1cccs1 [Example 73, 2-chlorophenyl (3S)-4-(N^2-cyclohexyl-N^6,N^6-dimethyl-D-lysyl)-3-[(thiophen-2-ylmethyl)carbamoyl]piperazine-1-carboxylate]",1.1
11,"CN(C)CCCC[C@H](C(=O)N1CCN(C2=NC(C)(C)C(c3ccccc3)O2)C[C@H]1C(=O)NCc1ccc2[nH]cc(Cl)c2c1)N(C)C (stereo partly drawn) [Example 145, (2S)-N-[(3-chloro-1H-indol-5-yl)methyl]-4-(4,4-dimethyl-5-phenyl-4,5-dihydro-1,3-oxazol-2-yl)-1-(N^2,N^2,N^6,N^6-tetramethyl-D-lysyl)piperazine-2-carboxamide]",6.7
12,"C[C@@H]1N=C(N2CCN(C(=O)[C@@H](CCCCN3CCCCC3)NC3CCC(CN)CC3)[C@H](C(=O)NCc3cccc(Cl)c3)C2)O[C@H]1c1ccccc1 (stereo partly drawn) [Example 176, (2S)-1-{N-[4-(aminomethyl)cyclohexyl]-6-piperidin-1-yl-D-norleucyl}-N-(3-chlorobenzyl)-4-[(4S,5S)-4-methyl-5-phenyl-4,5-dihydro-1,3-oxazol-2-yl]piperazine-2-carboxamide]",29
13,"CCS(=O)(=O)N1CCC([C@@H](NC2CCCCC2)C(=O)N2CCN(C(=O)Oc3ccccc3Cl)C[C@H]2C(=O)NCc2cccs2)CC1 [Example 61, 2-chlorophenyl (3S)-4-{(2R)-2-(cyclohexylamino)-2-[1-(ethylsulfonyl)piperidin-4-yl]acetyl}-3-[(thiophen-2-ylmethyl)carbamoyl]piperazine-1-carboxylate]",4.2
14,"O=C(NCc1cccs1)[C@@H]1CN(C(=O)Oc2ccccc2Cl)CCN1C(=O)[C@@H](CCCCN1CCCS1(=O)=O)NC1CCCCC1 [Example 77, 2-chlorophenyl (3S)-4-[N-cyclohexyl-6-(1,1-dioxidoisothiazolidin-2-yl)-D-norleucyl]-3-[(thiophen-2-ylmethyl)carbamoyl]piperazine-1-carboxylate]",4.6
15,"C[C@@H]1N=C(N2CCN(C(=O)[C@@H](CCCCN3CCCCC3)NC3CCC(CN)CC3)[C@H](C(=O)NCc3ccc(C(N)=O)s3)C2)O[C@H]1c1ccccc1 (stereo partly drawn) [Example 177, (2S)-1-{N-[4-(aminomethyl)cyclohexyl]-6-piperidin-1-yl-D-norleucyl}-N-[(5-carbamoylthiophen-2-yl)methyl]-4-[(4S,5S)-4-methyl-5-phenyl-4,5-dihydro-1,3-oxazol-2-yl]piperazine-2-carboxamide]",27.9
16,"O=C(NCc1cccs1)[C@@H]1CN(C(=O)Oc2ccccc2Cl)CCN1C(=O)[C@@H](CCCCN1CCCCC1)NC1CCC2(CC1)CCN(Cc1ccccc1)C2 (stereo partly drawn) [Example 88, 2-chlorophenyl (3S)-4-[N-(2-benzyl-2-azaspiro[4.5]dec-8-yl)-6-piperidin-1-yl-D-norleucyl]-3-[(thiophen-2-ylmethyl)carbamoyl]piperazine-1-carboxylate]",0.9
17,"C[C@@H]1N=C(N2CCN(C(=O)[C@@H](CCCCN(C)C)NC3CCCCC3)[C@H](C(=O)NCc3cccs3)C2)O[C@H]1c1cccc(C#N)c1 [Example 138, (2S)-4[(4S,5S)-5-(3-cyanophenyl)-4-methyl-4,5-dihydro-1,3-oxazol-2-yl]-1-(N^2-cyclohexyl-N^6,N^6-dimethyl-D-lysyl)-N-(thiophen-2-ylmethyl)piperazine-2-carboxamide]",1.4
18,"CS(=O)(=O)NCCCC[C@@H](NC1CCC2(CC1)CCN(Cc1ccccc1)C2)C(=O)N1CCN(C(=O)Oc2cccc(CN)c2Cl)C[C@H]1C(=O)NCc1cccs1 (stereo partly drawn) [Example 82, 3-(aminomethyl)-2-chlorophenyl (3S)-4-[N^2-(2-benzyl-2-azaspiro[4.5]dec-8-yl)-N^6-(methylsulfonyl)-D-lysyl]-3-[(thiophen-2-ylmethyl)carbamoyl]piperazine-1-carboxylate]",2.1
19,"O=C(NCc1cccs1)[C@@H]1CN(C(=O)Oc2cccc3c2CNCC3)CCN1C(=O)[C@@H](CC1CCCCC1)NC1CCCCC1 [Example 37, 1,2,3,4-tetrahydroisoquinolin-8-yl (3S)-4-(N,3-dicyclohexyl-D-alanyl)-3-[(thiophen-2-ylmethyl)carbamoyl]piperazine-1-carboxylate]",5.3
20,"O=C(NCc1cccs1)[C@@H]1CN(C(=O)Oc2cccc3ccc(O)nc23)CCN1C(=O)[C@@H](CC1CCCCC1)NC1CCCCC1 [Example 33, 2-hydroxyquinolin-8-yl (3S)-4-(N,3-dicyclohexyl-D-alanyl)-3-[(thiophen-2-ylmethyl)carbamoyl]piperazine-1-carboxylate]",20
21,"CC(C)(C)C(=O)N1CCC([C@@H](NC2CCCCC2)C(=O)N2CCN(C(=O)Oc3ccccc3Cl)C[C@H]2C(=O)NCc2cccs2)CC1 [Example 69, 2-chlorophenyl (3S)-4-{(2R)-2-(cyclohexylamino)-2-[1-(2,2-dimethylpropanoyl)piperidin-4-yl]acetyl}-3-[(thiophen-2-ylmethyl)carbamoyl]piperazine-1-carboxylate]",8.4
22,"COc1cc(CNC(=O)[C@@H]2CN(C3=NC(C)(C)[C@H](c4ccccc4)O3)CCN2C(=O)[C@@H](CCCCN(C)C)N(C)C)ccc1CN [Example 153, (2S)-N-[4-(aminomethyl)-3-methoxybenzyl]-4-[(5S)-4,4-dimethyl-5-phenyl-4,5-dihydro-1,3-oxazol-2-yl]-1-(N^2,N^2,N^6,N^6-tetramethyl-D-lysyl)piperazine-2-carboxamide]",7.4
